Measurements reported in patent US11427567B2, “Imidazolyl pyrimidinylamine compounds as CDK2 inhibitors” (Incyte Corporation, priority 2019, dated 2022).

The compounds below were run against CDK2/Cyclin E1 (Homo sapiens (Human), UniProt P24941) (assay: CDK2/Cyclin E1 HTRF enzyme activity assay (Example A)). Details: 1 mM ATP.
Type: biochemical
Procedure: Assays were conducted in white 384-well polystyrene plates in a final reaction volume of 8 μL. […] HTRF signals were read after 1 hour at room temperature on a PHERAstar FS plate reader (BMG Labtech). Data was analyzed with IDBS XLFit and GraphPad Prism 5.0 software using a three or four parameter dose response curve to determine IC50 for each compound.
Work on `CN(C)C(=O)c1ccc(-n2cnc(-c3nc(NC4CCN(S(C)(=O)=O)CC4)ncc3C(F)(F)F)c2)c(Cl)c1F` [Example 136, 3-Chloro-2-fluoro-N,N-dimethyl-4-(4-(2-((1-(methylsulfonyl)piperidin-4-yl)amino)-5-(trifluoromethyl)pyrimidin-4-yl)-1H-imidazol-1-yl)benzamide] yielded an IC50 of no more than 50 nM.
Compound `CNC(=O)c1ccc(-n2cnc(-c3nc(NC4CCN(S(C)(=O)=O)CC4)ncc3C(F)(F)F)c2)c(Cl)c1Cl` [Example 137, 2,3-Dichloro-N-methyl-4-(4-(2-((1-(methylsulfonyl)piperidin-4-yl)amino)-5-(trifluoromethyl)pyrimidin-4-yl)-1H-imidazol-1-yl)benzamide] has an IC50 of no more than 50 nM.
Work on `CS(=O)(=O)N1CCC(Nc2ncc(C(F)(F)F)c(-c3cn(-c4ccc(N5CC[C@@H](O)C5)cc4Cl)cn3)n2)CC1` [Example 138, (R)-1-(3-Chloro-4-(4-(2-((1-(methylsulfonyl)piperidin-4-yl)amino)-5-(trifluoromethyl)pyrimidin-4-yl)-1H-imidazol-1-yl)phenyl)pyrrolidin-3-ol] yielded an IC50 of no more than 50 nM.
For `CS(=O)(=O)N1CCC(Nc2ncc(C(F)(F)F)c(-c3cn(-c4ccc(N5CC[C@H](O)C5)cc4Cl)cn3)n2)CC1` [Example 139, (S)-1-(3-Chloro-4-(4-(2-((1-(methyl-sulfonyl)piperidin-4-yl)amino)-5-(trifluoromethyl)-pyrimidin-4-yl)-1H-imidazol-1-yl)-phenyl)pyrrolidin-3-ol], the IC50 was no more than 50 nM.
In the case of `C[C@H]1CN(c2ccc(-n3cnc(-c4nc(NC5CCN(S(C)(=O)=O)CC5)ncc4C(F)(F)F)c3)c(Cl)c2)CCN1` [Example 140, (S)-4-(1-(2-Chloro-4-(3-methyl-piperazin-1-yl)-phenyl)-1H-imidazol-4-yl)-N-(1-(methyl-sulfonyl)piperidin-4-yl)-5-(trifluoro-methyl)pyrimidin-2-amine], the IC50 is reported as no more than 50 nM.
Work on `C[C@@H]1CN(c2ccc(-n3cnc(-c4nc(NC5CCN(S(C)(=O)=O)CC5)ncc4C(F)(F)F)c3)c(Cl)c2)CCN1` [Example 141, (R)-4-(1-(2-Chloro-4-(3-methyl-piperazin-1-yl)-phenyl)-1H-imidazol-4-yl)-N-(1-(methyl-sulfonyl)piperidin-4-yl)-5-(trifluoro-methyl)pyrimidin-2-amine] yielded an IC50 of no more than 50 nM.
`CN1CCN(c2ccc(-n3cnc(-c4nc(NC5CCN(S(C)(=O)=O)CC5)ncc4C(F)(F)F)c3)c(Cl)c2)CC1=O` [Example 142, 4-(3-Chloro-4-(4-(2-((1-(methyl-sulfonyl)piperidin-4-yl)amino)-5-(trifluoromethyl)-pyrimidin-4-yl)-1H-imidazol-1-yl)phenyl)-1-methylpiperazin-2-one] was tested, and the IC50 was no more than 50 nM.
`CN(C)C1CCN(c2ccc(-n3cnc(-c4nc(NC5CCN(S(C)(=O)=O)CC5)ncc4C(F)(F)F)c3)c(Cl)c2)C1` (centres unmarked) [Example 143, 4-(1-(2-Chloro-4-(3-(dimethylamino)-pyrrolidin-1-yl)-phenyl)-1H-imidazol-4-yl)-N-(1-(methylsulfonyl)-piperidin-4-yl)-5-(trifluoromethyl)-pyrimidin-2-amine] was tested, and the IC50 was no more than 50 nM.
Work on `COCCNc1ccc(-n2cnc(-c3nc(NC4CCN(S(C)(=O)=O)CC4)ncc3C(F)(F)F)c2)c(Cl)c1` [Example 144, 4-(1-(2-Chloro-4-((2-methoxyethyl)-amino)phenyl)-1H-imidazol-4-yl)-N-(1-(methylsulfonyl)-piperidin-4-yl)-5-(trifluoromethyl)-pyrimidin-2-amine] yielded an IC50 of no more than 50 nM.
In the case of `CN(C)C1CCN(c2ccc(-n3cnc(-c4nc(NC5CCN(S(C)(=O)=O)CC5)ncc4C(F)(F)F)c3)c(Cl)c2)CC1` [Example 145, 4-(1-(2-Chloro-4-(4-(dimethylamino)-piperidin-1-yl)-phenyl)-1H-imidazol-4-yl)-N-(1-(methylsulfonyl)-piperidin-4-yl)-5-(trifluoromethyl)-pyrimidin-2-amine], the IC50 is reported as no more than 50 nM.
`CS(=O)(=O)N1CCC(Nc2ncc(C(F)(F)F)c(-c3cn(-c4ccc(N5CCC(N6CCCC6)CC5)cc4Cl)cn3)n2)CC1` [Example 146, 4-(1-(2-Chloro-4-(4-(pyrrolidin-1-yl)piperidin-1-yl)-phenyl)-1H-imidazol-4-yl)-N-(1-(methylsulfonyl)-piperidin-4-yl)-5-(trifluoromethyl)-pyrimidin-2-amine] gave an IC50 of no more than 50 nM.
In the case of `CN1CCN(c2ccc(-n3cnc(-c4nc(NC5CCN(S(C)(=O)=O)CC5)ncc4C(F)(F)F)c3)c(Cl)c2)C1=O` [Example 147, 1-(3-Chloro-4-(4-(2-((1-(methyl-sulfonyl)piperidin-4-yl)amino)-5-(trifluoromethyl)-pyrimidin-4-yl)-1H-imidazol-1-yl)-phenyl)-3-methyl-imidazolidin-2-one], the IC50 is reported as no more than 50 nM.
Compound `CN1CCN(c2ccc(-n3cnc(-c4nc(NC5CCN(S(C)(=O)=O)CC5)ncc4C(F)(F)F)c3)c(Cl)c2)CC1` [Example 148, 4-(1-(2-Chloro-4-(4-methylpiperazin-1-yl)phenyl)-1H-imidazol-4-yl)-N-(1-(methylsulfonyl)-piperidin-4-yl)-5-(trifluoromethyl)-pyrimidin-2-amine] has an IC50 of no more than 50 nM.
In the case of `CN(C)CCN(C)c1ccc(-n2cnc(-c3nc(NC4CCN(S(C)(=O)=O)CC4)ncc3C(F)(F)F)c2)c(Cl)c1` [Example 149, N^1-(3-Chloro-4-(4-(2-((1-(methyl-sulfonyl)piperidin-4-yl)amino)-5-(trifluoromethyl)-pyrimidin-4-yl)-1H-imidazol-1-yl)-phenyl)-N1,N2,N2-trimethylethane-1,2-diamine], the IC50 is reported as no more than 50 nM.
`CS(=O)(=O)N1CCC(Nc2ncc(C(F)(F)F)c(-c3cn(-c4ccc(N5CCNC(=O)C5)cc4Cl)cn3)n2)CC1` [Example 150, 4-(3-Chloro-4-(4-(2-((1-(methyl-sulfonyl)piperidin-4-yl)amino)-5-(trifluoromethyl)-pyrimidin-4-yl)-1H-imidazol-1-yl)-phenyl)piperazin-2-one] showed an IC50 of no more than 50 nM.
With `COc1ccc(-n2cnc(-c3nc(NC4CCN(S(C)(=O)=O)CC4)ncc3C(F)(F)F)c2)c(Cl)c1` [Example 151, 4-(1-(2-Chloro-4-methoxyphenyl)-1H-imidazol-4-yl)-N-(1-(methylsulfonyl)piperidin-4-yl)-5-(trifluoromethyl)pyrimidin-2-amine] the IC50 was no more than 50 nM.
`Cc1ccc(-n2cnc(-c3nc(N[C@H]4CCN(S(=O)(=O)c5cn(C)cn5)C[C@H]4C)ncc3C(F)(F)F)c2)c(C#N)n1` [Example 152, 6-Methyl-3-(4-(2-(((3R,4S)-3-methyl-1-((1-methyl-1H-imidazol-4-yl)sulfonyl)piperidin-4-yl)amino)-5-(trifluoromethyl)pyrimidin-4-yl)-1H-imidazol-1-yl)picolinonitrile] was tested, and the IC50 was no more than 50 nM.
Work on `Cc1ccc(-n2cnc(-c3nc(N[C@H]4CCN(S(=O)(=O)c5cnc(N)nc5)C[C@H]4C)ncc3C(F)(F)F)c2)c(C#N)n1` [Example 153, 3-(4-(2-(((3R,4S)-1-((2-Amino-pyrimidin-5-yl)-sulfonyl)-3-methylpiperidin-4-yl)amino)-5-(trifluoromethyl)-pyrimidin-4-yl)-1H-imidazol-1-yl)-6-methyl-picolinonitrile] yielded an IC50 of no more than 50 nM.
`Cc1ccc(-n2cnc(-c3nc(N[C@H]4CCN(S(=O)(=O)c5ccn(C)n5)C[C@H]4C)ncc3C(F)(F)F)c2)c(C#N)n1` [Example 154, 6-Methyl-3-(4-(2-(((3R,4S)-3-methyl-1-((1-methyl-1H-pyrazol-3-yl)-sulfonyl)piperidin-4-yl)amino)-5-(trifluoromethyl)-pyrimidin-4-yl)-1H-imidazol-1-yl)picolinonitrile] gave an IC50 of no more than 50 nM.
Compound `C[C@@H]1CN(S(=O)(=O)c2cn(C)cn2)CC[C@@H]1Nc1ncc(C(F)(F)F)c(-c2cn(-c3cccc(C#N)c3Cl)cn2)n1` [Example 155, 2-Chloro-3-(4-(2-(((3R,4S)-3-methyl-1-((1-methyl-1H-imidazol-4-yl)sulfonyl)piperidin-4-yl)amino)-5-(trifluoromethyl)pyrimidin-4-yl)-1H-imidazol-1-yl)benzonitrile] has an IC50 of no more than 50 nM.
In the case of `C[C@@H]1CN(S(C)(=O)=O)CC[C@@H]1Nc1ncc(C(F)(F)F)c(-c2cn(-c3ccc4nccnc4c3Br)cn2)n1` [Example 156, 4-(1-(5-Bromoquinoxalin-6-yl)-1H-imidazol-4-yl)-N-((3R,4S)-3-methyl-1-(methylsulfonyl)piperidin-4-yl)-5-(trifluoromethyl)pyrimidin-2-amine], the IC50 is reported as no more than 50 nM.
For `CN(C)CCc1ccc(-n2cnc(-c3nc(NC4CCN(S(C)(=O)=O)CC4)ncc3C(F)(F)F)c2)c(Cl)c1` [Example 157, 4-(1-(2-Chloro-4-(2-(dimethylamino)ethyl)phenyl)-1H-imidazol-4-yl)-N-(1-(methylsulfonyl)piperidin-4-yl)-5-(trifluoromethyl)pyrimidin-2-amine], the IC50 was no more than 50 nM.
For `CS(=O)(=O)N1CCC(Nc2ncc(C(F)(F)F)c(-c3cn(-c4ccc(CCN5CCC5)cc4Cl)cn3)n2)CC1` [Example 158, 4-(1-(4-(2-(Azetidin-1-yl)ethyl)-2-chloro-phenyl)-1H-imidazol-4-yl)-N-(1-(methyl-sulfonyl)piperidin-4-yl)-5-(trifluoro-methyl)pyrimidin-2-amine], the IC50 was no more than 50 nM.
For `CN1CCN(CCc2ccc(-n3cnc(-c4nc(NC5CCN(S(C)(=O)=O)CC5)ncc4C(F)(F)F)c3)c(Cl)c2)CC1=O` [Example 159, 4-(3-Chloro-4-(4-(2-((1-(methylsulfonyl)-piperidin-4-yl)-amino)-5-(trifluoro-methyl)pyrimidin-4-yl)-1H-imidazol-1-yl)phenethyl)-1-methylpiperazin-2-one], the IC50 was no more than 50 nM.
Work on `Cc1nc(-c2nc(NC3CCN(S(C)(=O)=O)CC3)ncc2C(F)(F)F)cn1-c1ccc(C2CNC2)cc1F` [Example 160, 4-(1-(4-(Azetidin-3-yl)-2-fluorophenyl)-2-methyl-1H-imidazol-4-yl)-N-(1-(methylsulfonyl)piperidin-4-yl)-5-(trifluoromethyl)pyrimidin-2-amine] yielded an IC50 of no more than 50 nM.
In the case of `Cc1nc(-c2nc(NC3CCN(S(C)(=O)=O)CC3)ncc2C(F)(F)F)cn1-c1ccc(C2CCN(C)CC2)cc1F` [Example 161, 4-(1-(2-Fluoro-4-(1-methylpiperidin-4-yl)phenyl)-2-methyl-1H-imidazol-4-yl)-N-(1-(methyl-sulfonyl)piperidin-4-yl)-5-(trifluoro-methyl)pyrimidin-2-amine], the IC50 is reported as no more than 50 nM.
